The text below walks through data of patent US9951088B2, “D2 receptor modulators and methods of use thereof in the treatment of diseases and disorders” (SUNOVION PHARMACEUTICALS INC., priority 2012, dated 2018).

By IC50 is commonly meant the concentration that inhibits the measured activity by half. A high value points to weaker potency. One may read the EC50 as the concentration giving half of the maximal effect.

Assay [1] deals with T1, long isoform of human D2 receptor (Homo sapiens, UniProt P14416). In words: Arrestin Antagonist Assay (DRD2L PathHunter CHO-K1 cells, vs EC80 dopamine). Conditions: for Emax: CHO-K1, read-out: β-arrestin (antagonist mode) Imax.
T1 sequence (P14416 whole entry, canonical isoform): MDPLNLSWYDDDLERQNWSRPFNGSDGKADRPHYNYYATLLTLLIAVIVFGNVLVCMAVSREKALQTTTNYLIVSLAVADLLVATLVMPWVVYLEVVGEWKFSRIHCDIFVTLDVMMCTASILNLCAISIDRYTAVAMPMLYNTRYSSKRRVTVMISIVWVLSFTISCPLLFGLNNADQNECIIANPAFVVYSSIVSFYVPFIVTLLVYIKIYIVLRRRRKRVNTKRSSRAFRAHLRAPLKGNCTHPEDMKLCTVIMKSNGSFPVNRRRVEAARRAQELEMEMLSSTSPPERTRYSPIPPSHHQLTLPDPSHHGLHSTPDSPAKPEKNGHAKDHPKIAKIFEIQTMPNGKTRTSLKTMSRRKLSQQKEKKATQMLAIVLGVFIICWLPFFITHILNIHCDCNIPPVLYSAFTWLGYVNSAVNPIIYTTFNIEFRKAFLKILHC
Procedure: Cell Lines: Activities of the compounds were assessed using a Chinese Hamster Ovary (CHO—K1) cell line that recombinantly expressed the long isoform of human D2 receptor (DRD2L PathHunter cells). The D2 receptor DNA sequence was modified to contain a “ProLink” at its C-terminus which allowed complementation with an “enzyme acceptor” (EA)-tagged β-arrestin protein. The recruitment of the O-arrestin by the D2 receptor led to complementation of the ProLink and EA and formation of active β-galactosidase which generated a D2-specific signal that was measured.
Arrestin Antagonist Assay: One day prior to testing, a vial of high density stock of DRD2L PathHunter cells was thawed, and 1×10^7 cells diluted into 40 mL of growth media (Ham's F12/10% HI FBS/1% PSG). 20 μL cells per well were seeded directly into assay plates, and the plates were allowed to rest for 1 h at RT before incubating in a plate incubator overnight.
The plate was incubated for 30 min at 37° C. 15 μL PathHunter detection reagent was added to each well of the assay plate, which was then covered and incubated for 1 h at RT. The plate was read on an Envision reader using the Luminescence protocol, and the data were exported for analysis.
The IC50 values (concentration producing a half-maximal inhibitory response) were determined by non-linear regression analysis of the concentration-response curves.
The target of assay [2] is T1, long isoform of human D2 receptor. Description: cAMP HTRF Agonist Assay (DRD2L PathHunter CHO-K1 cells, forskolin-stimulated). Conditions: for Emax: CHO-K1, read-out: cAMP (agonist mode) Emax.
For assay [3] the target is unchanged. In words: Arrestin Agonist Assay (DRD2L PathHunter CHO-K1 cells, β-arrestin recruitment). The note with it: for Emax: CHO-K1, read-out: β-arrestin (agonist mode) Emax. On the technique in general: Activated receptors often draw arrestin, which recruitment assays turn into a signal.

Take `Cc1cccc(N2CCN(CCCCOc3ccc4cccc(O)c4n3)CC2)c1C` [Compound 7, 2-(4-(4-(2,3-dimethylphenyl)piperazin-1-yl)butoxy)quinolin-8-ol]: in assay [1], the IC50 was in the range of 100 to 1000 nM and the Emax is greater than 75%. Also, in assay [2], the IC50 lay in the range of 10 to 100 nM and the Emax is 25 to 50%. In addition, in assay [3], the EC50 is greater than 10000 nM and the Emax was less than 10%.

On to `O=C1CCc2ccc(OCCCCN3CCn4cncc4C3)cc2N1` [Compound 33, 7-(4-(5,6-dihydroimidazo[1,5-a]pyrazin-7(8H)-yl)butoxy)-3,4-dihydroquinolin-2(1H)-one], for which the values for the IC50 in assay [1] and in assay [2] were 1000 to 10000 nM and greater than 10000 nM, respectively. In addition, the Emax is 50 to 75% in assay [1], less than 10% in assay [2] and less than 10% in assay [3]. Besides, the EC50 in assay [3] was greater than 10000 nM.

For the compound `O=C1CCc2ccc(OCCCCN3CCc4cc(F)ccc4C3)nc2N1` [Compound 72, 7-(4-(6-fluoro-3,4-dihydroisoquinolin-2(1H)-yl)butoxy)-3,4-dihydro-1,8-naphthyridin-2(1H)-one], the results for the IC50 in assay [1] and in assay [2] were 10 to 100 nM and greater than 10000 nM, respectively. The Emax in assay [1] was greater than 75%; in assay [2], less than 10%; in assay [3], less than 10%. This compound also yielded an EC50 in assay [3] greater than 10000 nM.

With `O=C1NCCc2ccc(OCCCCN3CCc4ccsc4C3)nc2N1` [Compound 87], in assay [1], the IC50 was in the range of 10 to 100 nM and the Emax is greater than 75%. Further, in assay [2], the IC50 is greater than 10000 nM and the Emax was less than 10%. Besides, in assay [3], the half-maximal effective concentration (EC50) was greater than 10000 nM and the Emax was less than 10%.

As for `O=c1ccc2ccc(OCCCCN3CCc4cccc(C(F)(F)F)c4C3)nc2[nH]1` [Compound 63, 7-(4-(8-(trifluoromethyl)-3,4-dihydroisoquinolin-2(1H)-yl)butoxy)-1,8-naphthyridin-2(1H)-one], the concentration for half-maximal inhibition (IC50) in assay [1] is 10 to 100 nM; in assay [2], greater than 10000 nM. Besides, the Emax is greater than 75% in assay [1], less than 10% in assay [2] and less than 10% in assay [3]. In assay [3], this compound registered an EC50 greater than 10000 nM.

As for `N#Cc1cccc2c1CN(CCCCOc1ccc3c(n1)NC(=O)CC3)CC2` [Compound 80, 2-(4-((7-oxo-5,6,7,8-tetrahydro-1,8-naphthyridin-2-yl)oxy)butyl)-1,2,3,4-tetrahydroisoquinoline-8-carbonitrile], the IC50 in assay [1] was 100 to 1000 nM; in assay [2], greater than 10000 nM. Moreover, the Emax is greater than 75% in assay [1], less than 10% in assay [2] and less than 10% in assay [3]. Besides, in assay [3], the half-maximal effective concentration (EC50) is greater than 10000 nM.

As for `Cc1ccc2c(c1)CN(CCCCOc1ccc3c(n1)NC(=O)CC3)CC2` [Compound 81, 7-(4-(7-methyl-3,4-dihydroisoquinolin-2(1H)-yl)butoxy)-3,4-dihydro-1,8-naphthyridin-2(1H)-one], in assay [1], the IC50 is 10 to 100 nM and the Emax is greater than 75%. Also, in assay [2], the half-maximal inhibitory concentration (IC50) is greater than 10000 nM and the Emax was less than 10%. In assay [3], the EC50 was greater than 10000 nM and the Emax is less than 10%.

In the case of `O=C1CCc2ccc(OCCCCN3CCc4sccc4C3)nc2N1` [Compound 69, 7-(4-(6,7-dihydrothieno[3,2-c]pyridin-5(4H)-yl)butoxy)-3,4-dihydro-1,8-naphthyridin-2(1H)-one], in assay [1], the concentration for half-maximal inhibition (IC50) is 10 to 100 nM and the Emax is greater than 75%. Besides, in assay [2], the IC50 was greater than 10000 nM and the Emax is less than 10%. Moreover, in assay [3], the concentration for a half-maximal effect (EC50) was greater than 10000 nM and the Emax is less than 10%.

Regarding `CS(=O)(=O)Nc1cccc(OCCCCN2CCc3ccccc3C2)n1` [Compound 42, N-(6-(4-(3,4-dihydroisoquinolin-2(1H)-yl)butoxy)pyridin-2-yl)methanesulfonamide], in assay [1], the IC50 was in the range of 1000 to 10000 nM and the Emax was greater than 75%. Besides, in assay [2], the half-maximal inhibitory concentration (IC50) is greater than 10000 nM and the Emax was less than 10%. In assay [3], the EC50 is greater than 10000 nM and the Emax is less than 10%.

As to `O=c1ccc2ccc(OCCCCN3CCc4ccccc4C3)nc2[nH]1` [Compound 52, 7-(4-(3,4-dihydroisoquinolin-2(1H)-yl)butoxy)-1,8-naphthyridin-2(1H)-one], the 50% inhibitory concentration (IC50) is 10 to 100 nM in assay [1] and less than 10 nM in assay [2]. Also, the Emax in assay [1] was greater than 75%; in assay [2] it was 50 to 75%; in assay [3] it was 10 to 25%. In assay [3], this compound displayed a half-maximal effective concentration (EC50) of less than 10 nM.

Consider `O=C1NCCc2ccc(OCCCCN3CCc4nn(-c5ccccc5)cc4C3)nc2N1` [Compound 89, 8-(4-(2-phenyl-6,7-dihydro-2H-pyrazolo[4,3-c]pyridin-5(4H)-yl)butoxy)-4,5-dihydro-1H-pyrido[2,3-d][1,3]diazepin-2(3H)-one], for which, in assay [1], the concentration for half-maximal inhibition (IC50) was 10 to 100 nM and the Emax lay within 50 to 75%. In addition, in assay [2], the half-maximal inhibitory concentration (IC50) was 10 to 100 nM and the Emax fell in the range of 25 to 50%. Besides, in assay [3], the 50% effective concentration (EC50) lay in the range of 10 to 100 nM and the Emax fell in the range of 25 to 50%.

As to `Clc1ccccc1N1CCN(CCCCOc2cccc(-c3cc[nH]n3)n2)CC1` [Compound 50, 1-(4-((6-(1H-pyrazol-3-yl)pyridin-2-yl)oxy)butyl)-4-(2-chlorophenyl)piperazine], the IC50 in assay [1] and in assay [2] was less than 10 nM throughout. In addition, the Emax in assay [1] is 50 to 75%; in assay [2], 50 to 75%; in assay [3] it was 25 to 50%. The EC50 in assay [3] was less than 10 nM.

Regarding `Oc1cccc2ccc(OCCCCN3CCN(c4cccc5ccccc45)CC3)nc12` [Compound 6, 2-(4-(4-(naphthalen-1-yl)piperazin-1-yl)butoxy)quinolin-8-ol], in assay [1], the half-inhibitory concentration (IC50) is 100 to 1000 nM and the Emax was in the range of 50 to 75%. Further, in assay [2], the half-inhibitory concentration (IC50) lay within 10 to 100 nM and the Emax lay in the range of 25 to 50%. Moreover, in assay [3], the 50% effective concentration (EC50) is 100 to 1000 nM and the Emax was in the range of 25 to 50%.

As to `O=C1NCCc2ccc(OCCCCN3CCc4nn(-c5ccccn5)cc4C3)nc2N1` [Compound 90, 8-(4-(2-(pyridin-2-yl)-6,7-dihydro-2H-pyrazolo[4,3-c]pyridin-5(4H)-yl)butoxy)-4,5-dihydro-1H-pyrido[2,3-d][1,3]diazepin-2(3H)-one], the figures for the IC50 in assay [1] and in assay [2] were greater than 10000 nM and less than 10 nM, respectively. In addition, the Emax in assay [1] was less than 10%; in assay [2], greater than 75%; in assay [3], greater than 75%. For the same compound, the concentration giving a half-maximal response (EC50) in assay [3] was in the range of 10 to 100 nM.

On to `O=c1ccc2ccc(OCCCCN3CCc4cc(Cl)ccc4C3)nc2[nH]1` [Compound 59, 7-(4-(6-chloro-3,4-dihydroisoquinolin-2(1H)-yl)butoxy)-1,8-naphthyridin-2(1H)-one], for which, in assay [1], the IC50 is less than 10 nM and the Emax is greater than 75%. Besides, in assay [2], the IC50 is less than 10 nM and the Emax fell in the range of 10 to 25%. Also, in assay [3], the EC50 was greater than 10000 nM and the Emax was less than 10%.

With `O=c1ccc2ccc(OCCCCN3CCc4nn(-c5ccccn5)cc4C3)nc2[nH]1` [Compound 67, 7-(4-(2-(pyridin-2-yl)-6,7-dihydro-2H-pyrazolo[4,3-c]pyridin-5(4H)-yl)butoxy)-1,8-naphthyridin-2(1H)-one], the values for the IC50 in assay [1] and in assay [2] were 100 to 1000 nM and 10 to 100 nM, respectively. The Emax in assay [1] is greater than 75%; in assay [2], 10 to 25%; in assay [3], less than 10%. In assay [3], this compound registered a 50% effective concentration (EC50) greater than 10000 nM.
